Assay results taken from patent US9714243B2, “4-pyridinonetriazine derivatives as HIV integrase inhibitors” (Merck Sharp & Dohme Corp., priority 2012, dated 2017).
Like-named read-outs stand apart in the source and are kept apart here.

Test system: HIV-1 (NL4-3 strain)
Assay: Assay for inhibition of HIV replication (ViKinG; infected MT4-GFP cells)
Assay type: cell-based
Summary of the method: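 MT4-GFP cells infected with NL4-3 at low MOI for 24 h, washed, then exposed to serially diluted compound (0.4% DMSO) in RPMI. GFP+ cells counted at 24 and 48 h; R0 = 48 h/24 h ratio, inhibition normalised to DMSO and triple-drug controls, IC50 from 4-parameter fit.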

[1] = Human immunodeficiency virus 1, NL43, MT4-GFP cells infected with HIV-1 NL4-3, 0% normal human serum (NHS), read-out: ViKinG IP (nM) with 0% NHS
[2] = Human immunodeficiency virus 1, NL43, MT4-GFP cells infected with HIV-1 NL4-3, 100% normal human serum (NHS), read-out: ViKinG IP (nM) with 100% NHS
[3] = MT4-GFP cells infected with HIV-1 NL4-3, 100% normal human serum (NHS), read-out: ViKinG IP (nM) with 100% NHS
[4] = MT4-GFP cells infected with HIV-1 NL4-3, 0% normal human serum (NHS), read-out: ViKinG IP (nM) with 0% NHS
[5] = Human immunodeficiency virus 1, NL43, MT4-GFP cells infected with HIV-1 NL4-3, 10% normal human serum (NHS), read-out: ViKinG IP (nM) with 10% NHS

| Compound | IC50 [1] [nM] | IC50 [2] [nM] | IC50 [3] [nM] | IC50 [4] [nM] | IC50 [5] [nM] |
| --- | --- | --- | --- | --- | --- |
| C[C@@H]1n2cc(C(=O)NCc3ccc(F)cc3F)c(=O)c(O)c2C(=O)N(C)C12CC2 [Compound 176] | 2.12 | 39 | – | – | – |
| COCCN1C(=O)c2c(O)c(=O)c(C(=O)NCc3ccc(F)cc3F)cn2CC12CCC2 [Compound 177] | 5.03 | 4790 | – | – | – |
| CN1C(=O)c2c(O)c(=O)c(C(=O)NCc3ccc(F)cc3F)cn2CC12CCC2 [Compound 178] | 2.73 | 233 | – | – | – |
| CCN1C(=O)c2c(O)c(=O)c(C(=O)NCc3ccc(F)cc3F)cn2CC12CC2 [Compound 179] | 2.86 | 1360 | – | – | – |
| COCCN1C(=O)c2c(O)c(=O)c(C(=O)NCc3ccc(F)cc3F)cn2CC12CC2 [Compound 180] | 1.8 | 611 | – | – | – |
| COC1CCC2(CC1)Cn1cc(C(=O)NCc3ccc(F)cc3F)c(=O)c(O)c1C(=O)N2C (stereo not shown) [Compound 181] | 2.48 | 28.9 | – | – | – |
| CCOC1CCC2(CC1)Cn1cc(C(=O)NCc3ccc(F)cc3F)c(=O)c(O)c1C(=O)N2CC (stereo not shown) [Compound 182] | 4.02 | 45.5 | – | – | – |
| COCCN1C(=O)c2c(O)c(=O)c(C(=O)NCc3ccc(F)cc3F)cn2[C@@H](C)C12CC2 [Compound 183] | 3.17 | 188 | – | – | – |
| COCCN1C(=O)c2c(O)c(=O)c(C(=O)NCc3ccc(F)cc3)cn2[C@@H](C)C12CC2 [Compound 184] | 2.66 | 178 | – | – | – |
| COCCN1C(=O)c2c(O)c(=O)c(C(=O)NCc3ccc(F)c(F)c3F)cn2[C@@H](C)C12CC2 [Compound 185] | 2.2 | 212 | – | – | – |
| CN1C(=O)c2c(O)c(=O)c(C(=O)NCc3ccc(F)cc3F)cn2N(C)[C@]12CC[C@@H]1C[C@@H]12 [Compound 186] | 1.74 | 283 | – | – | – |
| CN1C(=O)c2c(O)c(=O)c(C(=O)NCc3ccc(F)cc3F)cn2N(C)[C@@]12CC[C@@H]1C[C@@H]12 [Compound 187] | 3.64 | 502 | – | – | – |
| CCN1C(=O)c2c(O)c(=O)c(C(=O)NCc3ccc(F)cc3F)cn2N(C)C12CC[C@@H]1C[C@@H]12 (stereo partly shown) [Compound 188] | 1.49 | 406 | – | – | – |
| CCN1C(=O)c2c(O)c(=O)c(C(=O)NCc3ccc(F)cc3F)cn2N(C)[C@@]12CC[C@@H]1C[C@@H]12 [Compound 189] | 3.62 | 626 | – | – | – |
| COCCN1C(=O)c2c(O)c(=O)c(C(=O)NCc3ccc(F)cc3F)cn2N(C)C12CC[C@@H]1C[C@@H]12 (stereo partly shown) [Compound 190] | 29 | 2910 | – | – | – |
| CCOC1CCC2(CC1)N(CC)C(=O)c1c(O)c(=O)c(C(=O)NCc3ccc(F)cc3F)cn1N2C (stereo not shown) [Compound 191] | 6.74 | – | 239 | – | – |

| Compound | IC50 [1] [nM] | IC50 [2] [nM] | IC50 [3] [nM] | IC50 [4] [nM] | IC50 [5] [nM] |
| --- | --- | --- | --- | --- | --- |
| CCOC1CCC2(CC1)N(CC)C(=O)c1c(O)c(=O)c(C(=O)NCc3ccc(F)cc3F)cn1N2C (stereo not shown) [Compound 192] | – | – | 67.2 | 3.66 | – |
| CCCOC1CCC2(CC1)N(CC)C(=O)c1c(O)c(=O)c(C(=O)NCc3ccc(F)cc3F)cn1N2C (stereo not shown) [Compound 193] | – | – | 84.8 | 8.24 | – |
| CCCOC1CCC2(CC1)N(CC)C(=O)c1c(O)c(=O)c(C(=O)NCc3ccc(F)cc3F)cn1N2C (stereo not shown) [Compound 194] | – | – | 400 | 25 | – |
| CN1C(=O)c2c(O)c(=O)c(-c3nnc(Cc4ccc(F)cc4F)s3)cn2N(C)C12CC[C@@H]1C[C@@]12CO (stereo partly shown) [Compound 195] | 2.02 | – | 190 | – | – |
| CN1n2cc(-c3nnc(Cc4ccc(F)cc4F)s3)c(=O)c(O)c2C(=O)NC12CC[C@@H]1C[C@@H]12 (stereo partly shown) [Compound 196] | 1.61 | 307 | – | – | – |
| COC(=O)[C@]12C[C@H]1CCC21N(C)C(=O)c2c(O)c(=O)c(-c3nnc(C(C)c4ccc(F)cc4F)s3)cn2N1C (stereo partly shown) [Compound 206] | 15.4 | – | – | – | 62.4 |
| O=C1NC2(CCC2)Cn2cc(-c3nnc(Cc4ccc(F)cc4F)s3)c(=O)c(O)c21 [Compound 210] | 4.11 | – | – | – | 68.4 |
| CCN1C(=O)c2c(O)c(=O)c(-c3nnc(Cc4ccc(F)cc4F)s3)cn2CC12CCC2 [Compound 211] | 10.3 | 2800 | – | – | – |
| COC1CCC2(CC1)Cn1cc(-c3nnc(Cc4ccc(F)cc4F)s3)c(=O)c(O)c1C(=O)N2C (stereo not shown) [Compound 212] | 3.49 | – | 90.7 | – | – |
| COC1CCC2(CC1)Cn1cc(-c3nnc(Cc4ccc(F)cc4F)s3)c(=O)c(O)c1C(=O)N2C (stereo not shown) [Compound 213] | – | – | 35.8 | 5.89 | – |
| COCCN1C(=O)c2c(O)c(=O)c(-c3cn(Cc4ccc(F)cc4F)nn3)cn2CC12CCC2 [Compound 214] | 24.4 | 205 | – | – | – |
| CN1C(=O)c2c(O)c(=O)c(-c3cn(Cc4ccc(F)cc4F)nn3)cn2CC12CCC2 [Compound 215] | 9.93 | 76.1 | – | – | – |
| CCN1C(=O)c2c(O)c(=O)c(-c3cn(Cc4ccc(F)cc4F)nn3)cn2CC12CCC2 [Compound 216] | 13.2 | 332 | – | – | – |
| CCN1C(=O)c2c(O)c(=O)c(-c3nnc(Cc4ccc(F)cc4)s3)cn2N(C)C12CCCCC2 [Compound 222] | 1.28 | – | – | – | – |
| CCN1C(=O)c2c(O)c(=O)c(-c3nnc(Cc4ccc(F)cc4)s3)cn2N(C)C12CC(C(=O)OC)C2 (stereo not shown) [Compound 224] | – | 361 | – | – | 49.3 |
